# Measurements published in US20040138137A1, “Alloferons - immunomodulatory peptides” (Entopharm Co., Ltd., priority 1999, published 2004).
# Read-outs that look alike come from different tables or passages of the source. Marks after values point to notes of the source that are not given here. Ends that are not written are not given here.
# Columns and labels:
# [1] = test system: human influenza virus A strain A/Aichi/2/68 (cerotype H3N2); type: in vivo, mice
# [2] = test system: human peripheral blood lymphocytes; K562 cancer cells; experiment: Cytotoxic activity of human peripheral blood lymphocytes against K562 cancer cells
# Description: (§1) H3-uridine labeled K562 human leukemia cells were used as targets for a cytotoxic lymphocytes' attack. […] Then the proportion of killed and normal target cells and the corresponding cytotoxicity indices were determined in control and experimental groups.
# (§2) The lymphocytes were diluted up to 2×10^6 cells/ml and immediately used for the cytotoxicity analysis.
# [3] = test system: peripheral blood lymphocytes (PBL) in cancer patients; A431; experiment: PBL cytotoxicity in cancer patients, A431 targets; settings: for Cytotoxicity index, %: A431, lymphocyte:target 20:1
# Description: as §1, §2
# (§3) Two kinds of target cells were used in the study simultaneously: the K562 cell line originated from erythromyeloid leukemia cells and the A431 cell line originated from the solid colorectal tumor. The proportion of lymphocytes and target cells (E/T ratio) in the trial was 20:1.
# [4] = test system: peripheral blood lymphocytes (PBL) in healthy donors; A431 cell line; settings: 17 healthy donors
# Description: as §1, §2, §3
# [5] = test system: peripheral blood lymphocytes (PBL) in healthy donors; K562 cell line; experiment: PBL cytotoxicity in healthy donors, K562 targets; settings: for Cytotoxicity index, M ± m, %: healthy donor 16, K562, 5 ng/ml, lymphocyte:target 20:1, control −3.5 ± 7.4; for Donors responding by statistically approved increase of cytotoxic activity against K562 or A431: out of 17 healthy donors
# Description: as §1, §2, §3
# [6] = test system: peripheral blood lymphocytes (PBL) in cancer patients; K562; settings: 18 cancer patients; for Positive responses proportion, K562 or A531: either target
# Description: as §1, §2, §3
# [7] = test system: human peripheral blood lymphocytes; A431 tumor cells; experiment: Cytotoxic activity of human PBL against A431 tumor cells, alloferon 1 analogs; settings: 5 ng/ml; A431 targets; control −6.0 ± 8.1
# Description: The mononuclear fraction isolated from the blood of healthy donors and target cell of the A431 cell line were co-incubated in the presence of one of the preparations: alloferon 1, alloferon 3, alloferon 4 or interferon-alpha 2b (positive control). The preparation's concentration in all cases was 5 ng/ml. Cytotoxicity index excess over the untreated control was used as the efficacy criterion.
# [8] = test system: fat cells; settings: therapeutic and 10-fold administration
# [9] = subcutaneous injection 1.5 and 15 mg/kg into pregnant rats
# [10] = Acute toxicity in rats; type: in vivo
# [11] = therapeutic and 10-fold administration
# [12] = Subacute and chronic toxicity in rats; type: in vivo; settings: 0.2, 2 and 20 mg/kg once a day during 90 days
# [13] = Toxicity evaluation, panel of in vitro and in vivo models (overall statement); settings: in vivo and in vitro studies
# Description: The toxicity of alloferon was tested using a panel of in vitro and in vivo models.
# [14] = therapeutic and 10-fold administration; remark: listed apart in the source
# [15] = test system: mouse spleen lymphocytes; K562 human leukemia cells
# Description: as §1
# [16] = test system: E. coli test-line PQ37; experiment: DNA SOS-reparation; type: cell-based
# [17] = test system: mouse germ cells; experiment: Dominant lethal mutations in the mouse germ cells; type: in vivo; settings: 15 mg/kg
# [18] = Acute toxicity in mice; type: in vivo; settings: 500-6000 mg/kg in mice
# [19] = therapeutic and 10-fold administration; remark: listed apart in the source
# [20] = test system: mouse bone marrow cells; settings: single dose 0.5 and 15 mg/kg and fivefold dose 0.5 mg/kg
# [21] = test system: Salmonella tiphimurium; experiment: Ames test; type: cell-based; settings: 0.1-1000 microgram/Petri dish; 3 test line
# [22] = patient 11, Uterus cancer, control 93.3 ± 1.0
# [23] = patient 14, Non-Hodgkin lymphoma, control −40.0 ± 20.5
# [24] = 17 healthy donors, K562 or A431
molecule,measurement,setting,value
CC(N)C12CC3CC(CC(C3)C1)C2 (stereo not drawn) [Remantadin],"Mortality 10 days after virus inoculation, %","[1]; 1000 microgram per mouse per os, control 65",5*** %
same,Protection from lethal pulmonary lesions caused by the influenza virus,"[1]; mouse, in vivo, sc",effectively protected
Interferon-alpha 2b,Efficacy compared to alloferon at 0.05-0.5 ng/ml,[2]; 5 ng/ml,less effective
same,"Positive responses proportion, A431",[3]; 18 cancer patients,8/18 = 44%
same,"Cytotoxicity index, %",[3]; [22],93.5 ± 0.9%
same,"Cytotoxicity index, %",[3]; [23],26.0 ± 8.9 %
same,"Positive responses proportion, A431",[4],4/17 = 24%
same,Positive responses coincidence: Donors selectively sensitive to the preparation,[5]; [24],1/17 = 6%
same,Positive responses coincidence: Interferon and alloferon sensitive donors,[5]; [24],9/17 = 53%
same,"Positive responses proportion, K562 or A531","[5]; 17 healthy donors, either target",10/17 = 59%
same,"Positive responses proportion, K562","[5]; 17 healthy donors, positive response = statistically significant increase of lymphocyte cytotoxicity index",7/17 = 41%
same,"Cytotoxicity index, M ± m, %",[5],5.0 ± 4.7%
same,Donors responding by statistically approved increase of cytotoxic activity against K562 or A431,[5],10 donors
same,Positive responses coincidence: Donors selectively sensitive to the preparation,[6]; K562 or A431,4/18 = 22%
same,Positive responses coincidence: Interferon and alloferon sensitive donors,[6]; K562 or A431,7/18 = 38%
same,"Positive responses proportion, K562 or A531",[6]; listed as Interferon,10/18 = 56%
same,"Positive responses proportion, K562 or A531",[6]; listed as interferon,56%
same,"Positive responses proportion, K562",[6]; positive response = statistically significant increase of lymphocyte cytotoxicity index,6/18 = 33%
VSGHGQHGVH [Alloferon 3],"Average cytotoxicity index, M ± m, %",[7],60.2 ± 2.7%
HGVSGHGQHGVHG [Alloferon 1],Concentration from which PBLs' cytotoxicity against K562 was significantly increased,[2],≥ 0.0005 nanogram/ml
same,"Effective in vitro concentration, stimulation of human peripheral blood lymphocytes' cytotoxic activity",[2],0.0005 to 500 ng/mL
same,"Effective in vitro concentration, stimulation of peripheral blood lymphocytes' cytotoxic activity in cancer patients",[3]; cancer patients,5 ng/mL
same,"Cytotoxicity index, %",[3]; [22],94.3 ± 0.4%
same,"Cytotoxicity index, %",[3]; [23],15.3 ± 4.8 %
same,Indirect reaction of fat cells degranulation,[8],Fat cells degranulation rate was not changed under
same,"Cytotoxicity index, M ± m, %",[5],18.5 ± 1.7 %
same,Donors responding by statistically approved increase of cytotoxic activity against K562 or A431,[5],10 donors
same,Embriotoxicity and influence on the reproductive function,[9],Alloferon administration did not cause negative
same,"Acute toxicity, animal growth, feeding, macroscopical structure of organs, injection place",[10]; 300-5000 mg/kg in rats,"highest dose. No changes in animal growth, feeding,"
same,Toxic/therapeutic dose ratio,[10]; rats,ratio >35700 times
same,"Acute toxicity, mortality","[10]; single subcutaneous and intragastric administration, 300-5000 mg/kg in rats",Mortality was not registered in any dose including
same,Reaction of delayed hypersensitivity,[11],The reaction was not found under alloferon
same,Anaphylactic shock,"10-fold therapeutic dose, registered in 1 male, 12 guinea pigs","dosage. Minimal response (short term unrest, nose"
same,Anaphylactic shock,"therapeutic dosage, guinea pigs",No signs of anaphylaxy were found at therapeutic
same,"Subacute and chronic toxicity, mortality",[12],None animal died during 90 day period.
same,"Subacute and chronic toxicity, physiological, hematological, biochemical, pathomorphological and histological data",[12],"testicles, ovary) data did not show negative changes"
same,Overall toxicity (words),[13]; listed as Alloferon,practically nontoxic
same,Overall toxicity (words),[13]; listed as alloferon,No signs of acute or chronic toxicity
same,Overall toxicity (words),[13]; listed as alloferon 1,Neither an acute nor a chronic toxicity
same,Conjunctive probe,[14],The reaction was not found under alloferon
same,"Effective in vitro concentration, stimulation of mouse spleen lymphocytes' cytotoxic activity",[15],0.05 to 50 ng/mL
same,"DNA SOS-reparation, DNA-damaging activity",[16],Alloferon has no DNA-damaging activity in the E. coli
same,Dominant lethal mutations in the mouse germ cells,[17],Alloferon in the dose 15 mg/kg did not induce
same,"Acute toxicity, animal growth, feeding, macroscopical structure of organs, injection place",[18],"highest dose. No changes in animal growth, feeding,"
same,"Acute toxicity, mortality",[18]; single subcutaneous and intragastric administration,Mortality was not registered in any dose including
same,Immune complexes reaction,[19],The reaction was not found under alloferon
same,Chromosome aberrations in the mouse bone marrow cells,[20],fivefold dose 0.5 mg/kg did not induce chromosome
same,"Ames test, gene mutations",[21],microgram/Petri dish did not induce gene mutations
